Test [1] can be described thus: Selectivity ratio, IC50 for human MT2 melatonin receptor to IC50 for hamster MT3 melatonin binding site.
The nature of test [2]: Inhibition of MT3 melatonin binding site from hamster brain membrane. Set-up: species or system Cricetinae.
Test [3] has as its target T1, Melatonin receptor type 1B (Homo sapiens, UniProt P49286).
T1 sequence (P49286 whole entry): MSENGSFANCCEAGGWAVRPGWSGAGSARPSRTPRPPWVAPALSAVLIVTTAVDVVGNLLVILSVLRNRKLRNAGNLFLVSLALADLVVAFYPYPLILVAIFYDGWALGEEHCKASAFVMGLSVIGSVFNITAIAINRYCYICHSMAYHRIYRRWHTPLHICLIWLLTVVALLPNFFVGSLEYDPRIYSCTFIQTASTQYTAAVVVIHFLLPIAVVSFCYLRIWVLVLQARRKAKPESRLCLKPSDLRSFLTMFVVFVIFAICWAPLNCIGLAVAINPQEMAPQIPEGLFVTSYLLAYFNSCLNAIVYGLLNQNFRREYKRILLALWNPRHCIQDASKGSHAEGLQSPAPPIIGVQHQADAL
In words: Displacement of 2-[125I]iodomelatonin from human MT2 receptor expressed in HEK293 cells. The test is classed as cell-based.

For test [4], the target named is Melatonin receptor type 1A (Homo sapiens, UniProt P48039). The experiment in a line: Displacement of 2-[125I]iodomelatonin from human MT1 receptor expressed in HEK293 cells. The test is classed as cell-based.
Sequence of Melatonin receptor type 1A (P48039 whole entry): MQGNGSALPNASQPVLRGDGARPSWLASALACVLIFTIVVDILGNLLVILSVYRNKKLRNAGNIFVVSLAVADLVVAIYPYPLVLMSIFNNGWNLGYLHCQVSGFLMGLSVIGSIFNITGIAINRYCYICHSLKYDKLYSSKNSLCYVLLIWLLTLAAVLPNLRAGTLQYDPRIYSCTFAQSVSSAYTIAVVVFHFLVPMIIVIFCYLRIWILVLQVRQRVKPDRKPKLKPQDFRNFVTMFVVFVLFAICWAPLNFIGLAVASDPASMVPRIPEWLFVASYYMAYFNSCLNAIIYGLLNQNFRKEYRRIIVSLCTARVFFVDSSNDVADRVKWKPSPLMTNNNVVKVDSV
Test [5] is described as follows: Selectivity ratio, IC50 for human MT1 melatonin receptor to IC50 for hamster MT3 melatonin binding site.

Ratio IC50, IC50 and Ki data for 21 compounds are collected here from ChEMBL document CHEMBL1157185, “Design and synthesis of benzofuranic derivatives as new ligands at the melatonin-binding site MT3” (Bioorg Med Chem, 2008).

Molecules are shown by their SMILES.

Take `COC(=O)c1ccc2occ(CCNC(=O)C3CCCC3)c2c1`: the figures for the Ratio IC50 in test [1] and in test [5] were 21.6 and 215, respectively. The figures for the IC50 in test [2], in test [3] and in test [4] were 18 nM, 389 nM and 3880 nM, respectively.
The corresponding values for `CC(=O)NCCc1coc2ccc(C(N)=O)cc12` are 12, above 122, 82 nM, 1000 nM and above 10000 nM.
In test [2], `COC(=O)c1ccc2occ(CCNC(C)=O)c2c1` showed a half-inhibitory concentration (IC50) of 14 nM.
`CNC(=O)c1ccc2occ(CCNC(C)=O)c2c1`: the Ratio IC50 is above 83 in test [1] and 16 in test [5]. Also, the 50% inhibitory concentration (IC50) in test [2] was 12 nM; in test [3], above 1000 nM; in test [4], 189 nM.
Compound `COc1cc2nc(N3CCN(C(=O)c4ccco4)CC3)nc(N)c2cc1OC` [PRAZOSIN] showed a half-inhibitory concentration (IC50) in test [2] of 7.8 nM.
Take `C=CCC(=O)NCCc1coc2ccc(NC(=O)OC)cc12`: the Ratio IC50 in test [1] turned out to be 51; in test [5], 244. Also, the figures for the IC50 in test [2], in test [3] and in test [4] were 11 nM, 560 nM and 2690 nM, respectively.
With `COc1ccc2occ(CCNC(C)=O)c2c1`, the IC50 in test [2] is 64 nM.
Turning to `NC(=O)c1ccc2occ(CCNC(=O)c3ccco3)c2c1`, the Ratio IC50 in test [1] and in test [5] was above 149 in each case. Moreover, the half-maximal inhibitory concentration (IC50) in test [2] was 67 nM; in test [3] it was above 10000 nM; in test [4], above 10000 nM.
Consider `COC(=O)Nc1ccc2occ(CCNC(=O)C3CCCC3)c2c1`, for which the IC50 in test [3] and in test [4] was 5320 nM in each case.
Turning to `COC(=O)Nc1ccc2occ(CCNC(=O)C(C)C)c2c1`, the Ratio IC50 in test [1] stood at 199; in test [5], 232. Also, the IC50 in test [2] worked out at 23 nM; in test [3], 4580 nM; in test [4], 5350 nM.
For `COC(=O)c1ccc2occ(CCNC(=O)c3ccco3)c2c1` the same measures were above 188, above 188, 53 nM, above 10000 nM and above 10000 nM.
On to `CC(=O)NCCc1coc2ccc(NC(=O)C(F)(F)F)cc12`, for which the IC50 in test [3] is 2000 nM; in test [4], above 10000 nM.
Regarding `COC(=O)Nc1ccc2occ(CCNC(=O)c3ccco3)c2c1`, the Ratio IC50 in test [1] and in test [5] was above 178 each time. In addition, the 50% inhibitory concentration (IC50) in test [2] was 56 nM; in test [3] it was above 10000 nM; in test [4], above 10000 nM.
Regarding `COC(=O)c1ccc2occ(CCNC(=O)C(C)C)c2c1`, the concentration for half-maximal inhibition (IC50) in test [2] was 65 nM. In other words, the double-digit nanomolar range.
Take `CNC(=O)c1ccc2occ(CCNC(=O)C3CCCC3)c2c1`: the IC50 in test [3] and in test [4] was above 10000 nM each time.
In the case of `COC(=O)Nc1ccc2[nH]cc(CCNC(C)=O)c2c1`, the figures for the half-inhibitory concentration (IC50) in test [3] and in test [4] were 4000 nM and 1000 nM, respectively.
`COc1cc2c(cc1OC)-c1c(c3cc(O)ccc3n1C)C2=O` displayed an inhibition constant (Ki) in test [2] of 0.19 nM.
For the compound `CNC(=O)c1ccc2occ(CCNC(=O)C3CC3)c2c1`, the figures for the Ratio IC50 in test [1] and in test [5] were above 244 and above 29, respectively. Also, the results for the half-inhibitory concentration (IC50) in test [2], in test [3] and in test [4] were 41 nM, above 10000 nM and 1220 nM, respectively.
As to `COC(=O)Nc1ccc2occ(CCNC(C)=O)c2c1`, the half-maximal inhibitory concentration (IC50) in test [2] stood at 16 nM.
On to `COc1ccc2c(c(CCNC(C)=O)c(I)n2C)c1[N+](=O)[O-]`, for which the Ki in test [2] stood at 0.3 nM.
As for `COC(=O)Nc1ccc2occ(CCNC(=O)C3CC3)c2c1`, the values for the Ratio IC50 in test [1] and in test [5] were 245 and 340, respectively. Also, the IC50 in test [2] was determined as 24 nM; in test [3], 5900 nM; in test [4], 8180 nM.
